Measured values reported in patent publication US20240197715A1, “PHARMACEUTICAL COMBINATIONS AND USES THEREOF” (NOVARTIS AG, priority 2022, published 2024).

Experiments:
[1] = tested on: SW620 (CCL-227, ATCC) MSS colorectal carcinoma xenografts; assay: SW620 MSS CRC xenograft efficacy in nude mice; format: in vivo; conditions: for effect on tumor growth of parental SW620 tumors: irinotecan 15 mg/kg i.v. once weekly, Compound A 120 mg/kg p.o. daily
Experimental: SW620 (CCL-227, ATCC) [MSS colorectal carcinoma (CRC)] was cultured in DMEM (#1-26F01-I, AMIMED) supplemented with 10% FCS (#2-0-1F30-I, BioConcept), 4 mM L-glutamine (#5-10K50-H, BioConcept) and 1 mM Sodium pyruvate (#5-60F00-H, BioConcept). Cells were passaged by washing first with Dulbecco's PBS without Ca^2+/Mg^2+ (#3-05F29-1, AMIMED), trypsinising cells with Trypsin 0.05% in PBS with EDTA (#5-51F00-H, AMIMED), centrifuging in the respective culture media, and splitting cells into fresh media at a ratio of 1:8, 2 times per week.
Athymic nude mice (Charles River, Germany) were allowed to adapt for 7 days upon arrival at the animal facility and housed in a pathogen-controlled environment (5 mice/Type III cage) with access to food and water ad libitum. Animals were identified with transponders. Studies described in this report were performed according to procedures covered by a permit number issued by the Kantonales Veterinäramt Basel-Stadt.
Subcutaneous tumors were initiated by injecting 5.0×10^6 SW620 tumor cells in 50% Matrigel (#354234, Corning) in HBSS (#H6648, SIGMA) in the right flank of nude mice. The efficacy experiment (n=6), started 11 days post-cell injection.
Compound A and Temozolomide were made-up fresh on a weekly basis and kept at 4° C. and protected from light. Compound A was dissolved in 20% Hydroxypropyl-ß-Cyclodextrine (HP-ß-CD, #H107-100G, SIGMA) in UltraPure™ Water (#10977-035, Invitrogen) and administered p.o. at 10 ml/kg. Temozolomide was dissolved in 30% PEG-400 (#202398-500G, SIGMA) and 70% Dulbecco's PBS without Ca^2+/Mg^2+ (#3-05F29-1, AMIMED) and administered p.o. at 10 mL/kg on 5 consecutive days within a 21 days cycle. Irinotecan was made-up fresh for each treatment once a week by diluting with NaCl 0.9% (#3-06S00-I, BioConcept). The solution was administered i.v. at 5 mL/kg.
Tumor volumes (TVol), determined from caliper measurements (using the formula I*w2*π/6) were measured two times per week. Tumor response was quantified by the change in tumor volume (endpoint minus starting value in mm^3) as the T/C (the ratio between the tumor volume in the treated group and in the untreated control group). In the case of a tumor regression or to assess the percentage of change in TVol, the tumor response was quantified by the percentage of regression of the starting TVol. The body-weight (BW) of the animal was measured three times per week allowing calculation at any particular time-point relative to the day of initiation of treatment (day 0) of the percentage change in BW (4% BW).
At day 43 post-cell injection, irinotecan was administered intravenously at 15 mg/kg once weekly for 7 weeks in combination with Compound A, also administered from day 43, orally at 120 mg/kg daily for 52 days.
Starting 11 days post-cell injection, temozolomide was administered orally on a 21 day cycle of 5 consecutive days at 100 mg/kg on 5 consecutive days (day 11 to day 15 and day 32 to day 36). At day 43 post-cell injection, to the first group irinotecan was administered intravenously at 15 mg/kg once weekly for 6 weeks, and to the second group irinotecan was administered intravenously at 15 mg/kg once weekly for 6 weeks in combination with Compound A, also administered from day 43, orally at 120 mg/kg daily for 46 days.

[2] = tested on: SW48 colorectal carcinoma cells; assay: SW48 xenograft efficacy in nude mice; format: in vivo; conditions: for effect on tumor growth: irinotecan 60 mg/kg i.v. weekly
Experimental: All animals were allowed to adapt for 7 days and housed in a pathogen-controlled environment (5 mice/Type III cage) with access to food and water ad libitum and were identified with transponders.
5.0×10^6 SW48 colorectal carcinoma cells were implanted subcutaneously in nude mice (Charles River, Germany). Treatment was initiated when tumors reached 150-200 mm^3 volume. Efficacy studies and tumor response were measured as above.

[3] = Example 18, Compound A 20 mg/kg p.o. qd
[4] = Example 12, Compound A 40 mg/kg p.o. qd, trametinib 0.3 mg/kg p.o. qd

CCc1c2c(nc3ccc(OC(=O)N4CCC(N5CCCCC5)CC4)cc13)-c1cc3c(c(=O)n1C2)COC(=O)[C@]3(O)CC [irinotecan]
relapse of TMZ pre-treated SW620 tumors ([1]; after 2 cycles TMZ, treatment from day 43): the tumors relapsed | effect on tumor growth of parental SW620 tumors [1]: delay of the tumor growth | effect on tumor growth [2, 3]: no effect

CCc1c(N2CCN(C(=O)c3ncnc(C)c3O)CC2)c(=O)n2nc(C3=CCOCC3)nc2n1CC(=O)Nc1ccc(C(F)(F)F)cc1Cl [Compound A]
outcome after stopping temozolomide and irinotecan on day 129 ([1]; SW620, all treatments stopped vs still treated with compound A only): remained below 50% tumor regression | effect on tumor growth of parental SW620 tumors [1]: delay of the tumor growth | duration of response / relapse [2, 4]: for 30 days followed by relapse in all tumor-bearing mice | tumor regression [2, 4]: 40% | tumor regression ([2]; Example 15, Compound A 20 mg/kg p.o. qd, BAY-1895344 50 mg/kg p.o. twice a day, 3 days on/4 off): 15% | duration of response / relapse ([2]; Example 15, Compound A 20 mg/kg, BAY-1895344 50 mg/kg): for 30 days followed by relapse in all tumor-bearing mice | effect on tumor growth [2, 3]: stable disease | duration of response / relapse ([2]; Example 18, Compound A 20 mg/kg, irinotecan 60 mg/kg): for 21 days followed by a relapse in all tumor-bearing mice
